Source: patent US20190016689A1, “NOVEL FLUORINATED QUINAZOLINE DERIVATIVES AS EGFR INHIBITORS” (TRILLIUM THERAPEUTICS INC., priority 2016, published 2019)
Like-named read-outs stand apart in the source and are kept apart here.

Experiments:
EGFR (G719C) = EGFR (G719C) (Homo sapiens, UniProt P00533, G719C); assay: Kinase assays, selectivity panel (qPCR); conditions: read-out: % Control @ 300 nM
RXF393 = assay: NCI screening panel (SRB); assay type: cell-based; conditions: Homo sapiens, RXF 393, RXF393 (Renal), 48 h; for CC50: read-out: LC50 (the source's name)
CCRF-CEM = assay: NCI screening panel (SRB); assay type: cell-based; conditions: Homo sapiens, CCRF-CEM (Leukemia), 48 h; for CC50: read-out: LC50 (the source's name)
[1] = Plasma and brain exposure in male CD-1 mice (Brain PK); assay type: in vivo; conditions: CD-1, mouse, brain; for AUC(0-t): read-out: AUC0-tlast; for half-life: read-out: Apparent t1/2 (converted); for MRT last: read-out: MRT0-tlast
Experimental: Animals: Male CD-1 mice (20-25 g) from Charles River Labs will be acclimatized for a minimum of 5 days prior to dosing. Body weights will be recorded on the day of dosing. Food restriction: Animals dosed p.o. will be deprived of food overnight and fed ˜2 h following dosing. Clinical observations: Animals will be observed at the time of dosing and each sample collection. Any abnormalities will be documented. Dosing: Formulations will be administered i.v. via the tail vein and p.o. by gavage with disposable feeding needles. Sample collection: Terminal blood samples will be collected under O2/CO2 anesthesia by cardiac puncture and then the brain and lungs will be excised blotted and weighed. Sample processing/storage: All blood samples will be transferred into K2EDTA tubes and centrifuged (6,800 rpm for 5 min at 4° C.) to obtain plasma. All samples will be stored frozen at −80° C. until bioanalysis. Sample retention: Plasma, brain and lung samples will be analyzed and any remaining samples will be stored frozen at −80° C. until the study is completed.

786-0 = assay: NCI screening panel (SRB); assay type: cell-based; conditions: Homo sapiens, 786-0 (Renal), 48 h; for CC50: read-out: LC50 (the source's name)
IGROV1 = assay: NCI screening panel (SRB); assay type: cell-based; conditions: Homo sapiens, IGROV-1, IGROV1 (Ovarian), 48 h; for CC50: read-out: LC50 (the source's name)
TK-10 = assay: NCI screening panel (SRB); assay type: cell-based; conditions: Homo sapiens, TK-10 (Renal), 48 h; for CC50: read-out: LC50 (the source's name)
ACHN = assay: NCI screening panel (SRB); assay type: cell-based; conditions: Homo sapiens, ACHN (Renal), 48 h; for CC50: read-out: LC50 (the source's name)
EGFR = EGFR (Homo sapiens, UniProt P00533); assay: Kinase assays, selectivity panel (qPCR); conditions: read-out: % Control @ 300 nM
HCT-116 = assay: NCI screening panel (SRB); assay type: cell-based; conditions: Homo sapiens, HCT-116 (Colon), 48 h; for CC50: read-out: LC50 (the source's name)
HOP-62 = assay: NCI screening panel (SRB); assay type: cell-based; conditions: Homo sapiens, HOP-62 (NSCLC), 48 h; for CC50: read-out: LC50 (the source's name)
NCI/ADR-RES = assay: NCI screening panel (SRB); assay type: cell-based; conditions: Homo sapiens, NCI/ADR-RES (Ovarian), 48 h; for CC50: read-out: LC50 (the source's name)
RPMI-8226 = assay: NCI screening panel (SRB); assay type: cell-based; conditions: Homo sapiens, RPMI-8226 (Leukemia), 48 h; for CC50: read-out: LC50 (the source's name)
EGFR (L861Q) = EGFR (L861Q) (Homo sapiens, UniProt P00533, L861Q); assay: Kinase assays, selectivity panel (qPCR); conditions: read-out: % Control @ 300 nM
[2] = Plasma protein binding (equilibrium dialysis); assay type: in vitro ADME; conditions: pH 7.4, dialysis 6 hours
Experimental: Prepare a basic solution by dissolving 14.2 g/L Na2HPO4 and 8.77 g/L NaCl in deionized water. Store at 4° C. for up to 7 days. Prepare an acidic solution by dissolving 15.6 g/L NaH2PO4.2H2O and 8.77 g/L NaCl in deionized water. Store at 4° C. for up to 7 days. Titrate the basic solution with the acidic solution to pH 7.4. Store at 4° C. for up to 7 days. Check pH on the day of experiment and adjust if outside specification of 7.4±0.1.
b—Preparation of Dialysis Membranes Soak the dialysis membranes in ultrapure water for 60 minutes to separate strips, then in 20% ethanol for 20 minutes, finally in dialysis buffer for 20 minutes. c—Preparation of Plasma
Thaw the frozen plasma immediately in a 37° C. water bath.
Centrifuge plasma at 3,220 g for 10 minutes at room temperature to remove clots and collect supernatant into a fresh tube. Check and record the pH of the plasma.
Note: a) Only use plasma that has been thawed no more than twice since arrival. b) Only use plasma within the range of pH 7 to pH 8.
The working solutions of test compound and control compound ketoconazole are prepared in 50% water/50% acetonitrile and DMSO at the concentration of 200 μM, respectively. And then remove 3 μL of working solution to mix with 597 μL of human, rat and mouse plasma to achieve final concentration of 1 μM (0.5% DMSO). Vortex thoroughly.
Assemble the dialysis set up following the manufacturer's instructions. Load cells with 120 μL of plasma sample and dialyzed against equal volume of dialysis buffer (PBS). The assay is performed in duplicate. Seal the dialysis plate and place the plate in an incubator at 37° C. with 5% CO2 at approximately 100 rpm for 6 hours. At the end of dialysis, remove seal and pipette 50 μL each of post-dialysis samples from both buffer and plasma chambers into separate tubes in plate.
Add 50 μL of blank plasma to the buffer samples, and an equal volume of PBS to the collected plasma samples. Add 300 μL of room temperature quench solution (acetonitrile containing internal standards (IS, 200 nM Labetalol, 100 nM Alprazolam and 2 μM Ketoprofen)) to precipitate protein. Vortex for 5 minutes. Samples in plate are centrifuged at 3,220 g for 30 minutes at room temperature. Transfer 100 μL of the supernatant to a new plate. The supernatant may be diluted with 100 μL or 200 μL water according to the LC/MS signal response and peak shape. Mix well and analyze samples using LC/MS/MS.

[3] = human, read-out: Human Plasma % Bound (converted)
[4] = mouse, read-out: Mouse Plasma % Bound (converted)
[5] = rat, read-out: Rat Plasma % Bound (converted)

Chain of EGFR (L861Q) (P00533 25-1210 L861Q): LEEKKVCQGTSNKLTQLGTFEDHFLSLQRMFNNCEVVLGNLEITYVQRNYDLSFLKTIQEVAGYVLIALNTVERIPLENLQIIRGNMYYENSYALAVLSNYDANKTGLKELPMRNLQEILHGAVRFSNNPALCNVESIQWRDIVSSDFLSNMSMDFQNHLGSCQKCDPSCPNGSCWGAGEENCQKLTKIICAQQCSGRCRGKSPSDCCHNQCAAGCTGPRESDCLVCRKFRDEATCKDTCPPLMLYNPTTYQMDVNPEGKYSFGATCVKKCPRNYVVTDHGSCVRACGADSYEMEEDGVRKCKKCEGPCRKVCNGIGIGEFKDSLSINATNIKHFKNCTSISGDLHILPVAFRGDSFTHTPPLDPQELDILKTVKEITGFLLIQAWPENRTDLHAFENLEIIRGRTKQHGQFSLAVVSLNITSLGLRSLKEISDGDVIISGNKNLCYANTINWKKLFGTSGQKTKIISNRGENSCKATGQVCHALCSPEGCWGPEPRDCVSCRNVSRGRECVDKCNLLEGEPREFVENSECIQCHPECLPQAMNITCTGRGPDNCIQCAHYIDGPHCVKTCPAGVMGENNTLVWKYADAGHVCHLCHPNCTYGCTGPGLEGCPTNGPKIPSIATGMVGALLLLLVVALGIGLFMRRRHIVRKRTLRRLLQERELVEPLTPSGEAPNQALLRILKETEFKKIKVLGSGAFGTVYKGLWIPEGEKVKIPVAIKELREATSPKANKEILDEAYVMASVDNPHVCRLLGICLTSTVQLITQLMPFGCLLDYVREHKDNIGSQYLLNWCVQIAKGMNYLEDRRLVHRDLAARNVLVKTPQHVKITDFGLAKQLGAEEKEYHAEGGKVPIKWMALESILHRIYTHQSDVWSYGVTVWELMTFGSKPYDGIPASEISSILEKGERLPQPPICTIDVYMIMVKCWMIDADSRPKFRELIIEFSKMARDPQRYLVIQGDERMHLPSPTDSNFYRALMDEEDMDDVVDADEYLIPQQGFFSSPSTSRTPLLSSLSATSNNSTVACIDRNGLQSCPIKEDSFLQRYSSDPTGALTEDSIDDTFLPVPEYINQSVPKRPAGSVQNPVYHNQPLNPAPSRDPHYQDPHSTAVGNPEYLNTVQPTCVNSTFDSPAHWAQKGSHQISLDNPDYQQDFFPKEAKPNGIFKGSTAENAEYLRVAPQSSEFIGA
Chain of EGFR (G719C) (P00533 25-1210 G719C): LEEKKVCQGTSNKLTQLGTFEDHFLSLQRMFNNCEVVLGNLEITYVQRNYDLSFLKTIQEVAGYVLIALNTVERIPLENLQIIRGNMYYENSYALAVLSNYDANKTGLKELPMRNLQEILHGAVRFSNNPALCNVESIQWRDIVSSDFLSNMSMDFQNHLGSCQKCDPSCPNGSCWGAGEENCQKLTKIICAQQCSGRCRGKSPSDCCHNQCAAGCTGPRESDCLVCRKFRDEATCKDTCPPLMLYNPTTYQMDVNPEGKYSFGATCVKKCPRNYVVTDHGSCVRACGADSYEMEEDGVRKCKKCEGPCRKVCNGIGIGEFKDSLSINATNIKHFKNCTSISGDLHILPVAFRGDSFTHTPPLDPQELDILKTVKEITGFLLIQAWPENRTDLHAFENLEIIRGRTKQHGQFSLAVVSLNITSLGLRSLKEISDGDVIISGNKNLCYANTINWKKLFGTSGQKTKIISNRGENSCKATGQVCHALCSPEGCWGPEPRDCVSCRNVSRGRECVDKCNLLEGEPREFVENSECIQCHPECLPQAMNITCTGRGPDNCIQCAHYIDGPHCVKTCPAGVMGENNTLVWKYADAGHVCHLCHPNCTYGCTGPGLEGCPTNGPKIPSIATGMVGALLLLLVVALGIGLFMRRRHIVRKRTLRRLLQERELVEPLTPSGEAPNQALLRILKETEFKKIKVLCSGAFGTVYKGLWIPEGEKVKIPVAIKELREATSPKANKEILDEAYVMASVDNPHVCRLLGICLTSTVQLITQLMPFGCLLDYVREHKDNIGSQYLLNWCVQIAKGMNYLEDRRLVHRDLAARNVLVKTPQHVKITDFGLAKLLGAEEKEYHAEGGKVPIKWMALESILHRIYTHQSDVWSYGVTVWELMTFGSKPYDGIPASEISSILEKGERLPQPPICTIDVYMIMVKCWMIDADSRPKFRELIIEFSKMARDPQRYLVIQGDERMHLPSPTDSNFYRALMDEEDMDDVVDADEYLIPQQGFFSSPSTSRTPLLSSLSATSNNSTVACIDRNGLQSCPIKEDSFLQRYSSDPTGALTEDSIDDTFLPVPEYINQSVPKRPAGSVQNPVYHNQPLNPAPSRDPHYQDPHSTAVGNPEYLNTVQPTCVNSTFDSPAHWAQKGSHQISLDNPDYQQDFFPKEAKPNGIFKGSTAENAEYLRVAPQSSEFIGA
Chain of EGFR (P00533 25-1210): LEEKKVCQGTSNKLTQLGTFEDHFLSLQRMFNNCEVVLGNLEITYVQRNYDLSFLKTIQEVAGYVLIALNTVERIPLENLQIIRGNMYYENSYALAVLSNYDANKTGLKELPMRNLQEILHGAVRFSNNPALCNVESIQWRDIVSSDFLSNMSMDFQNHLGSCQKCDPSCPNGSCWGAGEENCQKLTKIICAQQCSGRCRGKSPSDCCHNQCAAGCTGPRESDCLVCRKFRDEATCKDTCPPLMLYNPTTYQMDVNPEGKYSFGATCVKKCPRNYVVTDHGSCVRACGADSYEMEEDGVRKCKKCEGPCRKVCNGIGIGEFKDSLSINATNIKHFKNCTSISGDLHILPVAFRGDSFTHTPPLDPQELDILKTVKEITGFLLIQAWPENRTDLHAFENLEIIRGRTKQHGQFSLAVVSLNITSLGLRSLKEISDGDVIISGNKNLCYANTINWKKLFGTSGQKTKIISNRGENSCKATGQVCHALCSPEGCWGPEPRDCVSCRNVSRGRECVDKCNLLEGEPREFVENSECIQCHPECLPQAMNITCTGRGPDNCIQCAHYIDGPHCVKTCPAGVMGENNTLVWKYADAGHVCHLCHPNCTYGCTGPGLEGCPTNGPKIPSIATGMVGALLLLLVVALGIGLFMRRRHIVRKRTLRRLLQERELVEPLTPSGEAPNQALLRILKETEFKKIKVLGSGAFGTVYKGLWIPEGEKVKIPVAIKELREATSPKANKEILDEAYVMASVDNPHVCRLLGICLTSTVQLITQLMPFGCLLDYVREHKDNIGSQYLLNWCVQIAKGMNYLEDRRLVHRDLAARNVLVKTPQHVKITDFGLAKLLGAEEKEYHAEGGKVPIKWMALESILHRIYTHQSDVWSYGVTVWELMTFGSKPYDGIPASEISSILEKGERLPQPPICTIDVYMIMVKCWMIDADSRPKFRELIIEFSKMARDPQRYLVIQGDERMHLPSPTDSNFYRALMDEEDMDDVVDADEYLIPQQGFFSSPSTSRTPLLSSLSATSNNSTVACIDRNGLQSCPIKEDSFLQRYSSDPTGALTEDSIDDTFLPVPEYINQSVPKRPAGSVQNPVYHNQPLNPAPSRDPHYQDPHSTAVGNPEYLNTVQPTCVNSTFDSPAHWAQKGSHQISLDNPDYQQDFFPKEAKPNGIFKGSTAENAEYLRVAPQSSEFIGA

| Compound | remaining activity at 0.3 µM (EGFR (G719C)) [%] | GI50 (RXF393) [µM] | CC50 (RXF393) [µM] | GI50 (CCRF-CEM) [µM] | CC50 (CCRF-CEM) [µM] | AUC(0-inf) ([1]; iv, i.v. 1 mg/kg free base) [ng·h/mL] | Cmax ([1]; iv, i.v. 1 mg/kg free base) [ng/mL] | Tmax ([1]; iv, i.v. 1 mg/kg free base) [h] | AUC(0-t) ([1]; iv, i.v. 1 mg/kg free base) [ng·h/mL] | half-life ([1]; iv, i.v. 1 mg/kg free base) [h] | MRT last ([1]; iv, i.v. 1 mg/kg free base) [h] | AUC(0-inf) ([1]; po, p.o. 25 mg/kg free base) [ng·h/mL] | Cmax ([1]; po, p.o. 25 mg/kg free base) [ng/mL] | Tmax ([1]; po, p.o. 25 mg/kg free base) [h] | AUC(0-t) ([1]; po, p.o. 25 mg/kg free base) [ng·h/mL] | half-life ([1]; po, p.o. 25 mg/kg free base) [h] | MRT last ([1]; po, p.o. 25 mg/kg free base) [h] | GI50 (786-0) [µM] | CC50 (786-0) [µM] | GI50 (IGROV1) [µM] | other results |
| --- | --- | --- | --- | --- | --- | --- | --- | --- | --- | --- | --- | --- | --- | --- | --- | --- | --- | --- | --- | --- | --- |
| CN(C)C/C=C/C(=O)Nc1cc2c(Nc3ccc(F)c(Cl)c3F)ncnc2cc1OCCOC(F)F.O=C(O)/C=C\C(=O)O.O=C(O)/C=C\C(=O)O [Example I-9-MA, (E)-N-[4-(3-chloro-2,4-difluoro-anilino)-7-[2-(difluoromethoxy)ethoxy]quinazolin-6-yl]-4-(dimethylamino)but-2-enamide di-maleic acid salt] | 1.1 | 0.351 | 15.1 | 2.47 | > 100 | 420 | 171 | 0.0833 | 397 | 7.11 | 6.6 | 5960 | 651 | 2 | 5900 | 3.44 | 6.78 | 0.248 | 26.6 | < 0.01 | CC50 (IGROV1): 32.5 µM; GI50 (TK-10): < 0.01 µM; CC50 (TK-10): 21.8 µM; GI50 (ACHN): < 0.01 µM; CC50 (ACHN): 6.01 µM; remaining activity at 0.3 µM (EGFR): 0.7%; GI50 (HCT-116): 0.483 µM; CC50 (HCT-116): 22.4 µM; GI50 (HOP-62): 1.35 µM; CC50 (HOP-62): 41.5 µM; GI50 (NCI/ADR-RES): 0.839 µM; CC50 (NCI/ADR-RES): > 100 µM; GI50 (RPMI-8226): 1.29 µM; CC50 (RPMI-8226): > 100 µM; remaining activity at 0.3 µM (EGFR (L861Q)): 0.1% |
| CN(C)C/C=C/C(=O)Nc1cc2c(Nc3ccc(F)c(Cl)c3)ncnc2cc1O[C@H]1CCOC1 [Afatinib, reference compound] | – | – | – | – | – | – | 12.7 | 0.0833 | 44.5 | 4.97 | 7.01 | 704 | 83.3 | 4 | 688 | 3.69 | 8.64 | – | – | – | fraction unbound at 6 h, 1 μM [2, 3]: 0.08; fraction unbound at 6 h, 1 μM [2, 4]: 0.0666; fraction unbound at 6 h, 1 μM [2, 5]: 0.0896 |
| O=C(/C=C/CN1CCCCC1)Nc1cc2c(Nc3ccc(F)c(Cl)c3F)ncnc2cc1OCCOC(F)F.O=C(O)/C=C\C(=O)O.O=C(O)/C=C\C(=O)O [Example I-10-MA, (E)-N-[4-(3-chloro-2,4-difluoro-anilino)-7-[2-(difluoromethoxy)ethoxy]quinazolin-6-yl]-4-(1-piperidyl)but-2-enamide di-maleic acid salt] | 0 | 0.959 | 33.3 | 2.27 | > 100 | 1730 | 1110 | 0.25 | 1710 | 4.75 | 2.99 | 14000 | 3830 | 2 | 13900 | 3.25 | 3.68 | 0.929 | > 100 | 0.0331 | CC50 (IGROV1): > 100 µM; GI50 (TK-10): < 0.01 µM; CC50 (TK-10): 35.1 µM; GI50 (ACHN): < 0.01 µM; CC50 (ACHN): 15 µM; remaining activity at 0.3 µM (EGFR): 2.7%; GI50 (HCT-116): 1.54 µM; CC50 (HCT-116): 88.9 µM; GI50 (HOP-62): 1.62 µM; CC50 (HOP-62): 39.5 µM; GI50 (NCI/ADR-RES): 1 µM; CC50 (NCI/ADR-RES): > 100 µM; GI50 (RPMI-8226): 1.64 µM; CC50 (RPMI-8226): 58.9 µM; remaining activity at 0.3 µM (EGFR (L861Q)): 0.75% |
| CN(C)C/C=C/C(=O)Nc1cc2c(Nc3cccc(Cl)c3F)ncnc2cc1OCCOC(F)F.O=C(O)/C=C\C(=O)O [Example I-5-MA, (E)-N-[4-(3-chloro-2-fluoro-anilino)-7-[2-(difluoromethoxy)ethoxy]quinazolin-6-yl]-4-(dimethylamino)but-2-enamide dimaleic acid salt] | – | – | – | – | – | – | – | – | – | – | – | – | – | – | – | – | – | – | – | – | fraction unbound at 6 h, 1 μM [2, 3]: 0.117; fraction unbound at 6 h, 1 μM [2, 4]: 0.0975; fraction unbound at 6 h, 1 μM [2, 5]: 0.0771 |
